# Data reported in patent publication US11970708B2, “Gene therapy vector with minimizing recombination, recombinant retrovirus comprising the vector, and pharmaceutical composition for preventing or treating cancer comprising the recombinant retrovirus” (ARTICURE INC., priority 2020, dated 2024).
# Columns and labels:
# U87MG cells = experiment: Western blotting of thymidine kinase (TK) and yeast cytosine deaminase (yCD) protein in infected cells; assay type: cell-based, human
# Description: After 3 days of initial infection, p1(passage 1)˜p10 cells were harvested and resuspended in 100 ? of T-PER tissue extraction agent (PIERCE, 78510)+1× proteinase inhibitor. Thereafter, the cells were broken by freezing-thawing three times, and the cytoplasmic supernatant was recovered by centrifugation at 13,000 rpm for 10 minutes. After quantifying the protein amount using BCA, 20 μg of cell lysate was taken and mixed with SDS sample loading dye to 1%. After reacting for 5 minutes in a 100° C. heat block, the reaction mixture was moved to ice and reacted for 2 minutes. Then, the reactant was loaded on 10% (TK) or 13.5% (yCD) SDS-PAGE gel, followed by electrophoresis. Upon completion of the electrophoresis, the protein was transferred to a NC (nitrocellulose) membrane at 90 V for 2 hours, and then put into a blocking solution (5% skim milk in 1X TBS-T), followed by reaction at room temperature for 1 hour. […] Then, the membrane was washed 4 times with 1× TBS-T at room temperature for 10 minutes, reacted in an ECL (enhanced chemiluminescence, Bio-rad Cat No. 170-5062) solution, and then analyzed in a chemiluminescence imaging system (ChemiDoc, Biorad CA). […]
# U-87MG cells [1] = experiment: Cell death of virus-infected cells upon prodrug (GCV, 5-FC) treatment, optical microscope; parameters: species or system human; conditions: MuLV env-based vectors, FIG. 16
# U-87MG cells [2] = experiment: as above; parameters: species or system human; conditions: GaLV env-based vectors; prodrugs GCV 30 μg/ and 1 mM 5-FC; FIG. 12
# Description: Specifically, the spRRVe-TK/sRRVgp-sEF1α-hopt-yCD virus was co-transfected into the 293T cell line using PLUS reagent (Invitrogen) and lipofectamine (Invitrogen). After 2 days, the supernatant of the virus was recovered, and U-87MG cells passaged in a 6-well plate at the density of 1.5×10^5 cells/well the previous day were infected with the virus and polybran at a concentration of 8 μg/ ? for 8 hours. Five days after infection (postinfection 5d), the cell supernatant was taken and re-infected to U-87MG cells passaged in a 6-well plate at the density of 1.5×10^5 cells/well the previous day (p1), and then sequentially infected up to p4 in the same way. Cells at each stage of infection were treated with trypsin-EDTA to make single cells, and passaged in a 12-well plate at the density of 1.5×10^5 cells/well, and from the next day after the passage, 30 μg/ ? of GCV and 1 mM 5-FC were treated for […], respectively, to confirm cell death.
# Specifically, the virus containing spRRVe-F4-hopt-yCD/sRRVgp-TK, spRRVe-F4-hopt-yCD/sRRVgp-F1-TK, spRRVe-F4-hopt-yCD/sRRVgp-F2-TK, spRRVe-F4-hopt-yCD/sRRVgp-F3-TK and spRRVe-F4-hopt-yCD/sRRVgp-F4-TK was co-transfected into the 293T cell line using PLUS reagent (Invitrogen) and lipofectamine (Invitrogen). […]
# [3] = tested on: brain tumor cell line U87MG; experiment: Recombination type analysis by genomic DNA PCR after serial virus infection (passages); assay type: cell-based, human; conditions: spRRVe-yCD/sRRVgp-TK virus
# Description: After 3 days of initial infection, the cultured supernatant was taken and re-infected to new U87MG, and the infected U87MG cell line was recovered and genomic DNA was isolated.
# The replicating-retrovirus vector for gene therapy is highly likely to cause recombination because the size of genomic RNA is increased by the introduced foreign gene and non-homologous sequences are added. Therefore, in order to construct an efficient and stable replicating-retrovirus vector for gene therapy, it is very important to confirm the presence and degree of recombination at the development stage.
# Specifically, polymerase chain reaction was performed using the primers listed in Table 1 below capable of specifically amplifying the env vector. […] 100 ng of genomic DNA, 1X reaction buffer, 0.25 mM dNTP, 0.2 pmol forward primer, 0.2 pmol reverse primer, and 0.2 unit Taq polymerase were added to a PCR reaction tube, and sterilized distilled water was added to make the final volume of 20 ? . Then, After PCR was performed under the conditions shown in Table 1 below, the amplified DNA was loaded on a 1% agarose gel to confirm the PCR amplification product, thereby confirming the infectivity of the virus and whether the recombination occurred. […]
substance,measurement,setting,value
"sRRVe-TK: MuLV env vector, 646 bp MCMV promoter, TK gene (SEQ. ID. NO: 33)",thymidine kinase (TK) protein expression,"U87MG cells; MuLV env-based vectors, FIG. 15",continuously expressed
same,cell death upon prodrug treatment,U-87MG cells [1],cell death is induced
"spRRVe-TK: GaLV env vector, 646 bp MCMV promoter, TK gene (SEQ. ID. NO: 27)",thymidine kinase (TK) protein expression,"U87MG cells; GaLV env-based vectors with sRRVgp-sEF1α-hopt-yCD, 0.1 MOI, p1-p10, FIG. 10",continuously expressed
same,cell death upon prodrug treatment,U-87MG cells [2],cell death is induced
spRRVe-yCD: GaLV env vector with full-length MCMV promoter and yCD gene (SEQ. ID. NO: 25),virus proliferation and infection (PCR products detected),[3]; day 3 of initial infection and passages 1 to 3,virus proliferation and infection progressed
same,passage from which PCR products smaller than the expected amplification product were detected (recombination),"[3]; full-length MCMV promoter, 2E7 gc, GaLV 1624F/MFGSacIR primers, up to passage 3",2 passage
